Read-outs that look alike come from different tables or passages of the source.
Columns and labels:
[1] = tested on: Platelet poor plasma; experiment: Blood clotting time in vitro (APTT, PT, TT); type: biochemical, rats; conditions: PT and TT tests, final concentration 0.05 mg/mL
Method: Rats were anaesthetized with 10% chloral hydrate (3 mL/kg). The blood obtained from the abdominal aorta was collected directly into citrated tubes containing 3.8% sodium citrate (1:9 (v/v)) and was used immediately after collection. Platelet poor plasma […] was prepared by centrifuging the blood at 3000 rpm for 20 min at 20 °C [24]. Plasma samples with jaundice, chylus, hemolysis and blood clot were excluded prior to the assays. Plasma mixtures were 90 μL of PRP with 10 μL of tested compounds (0.5 mg/mL, dissolved in DMSO). For PRP in the solvent group, the sample was 90 μL of PRP with 10 μL of DMSO. For PRP in the normal control group, the plasma was not-treated PRP sample. For PRP in the heparin group, the sample was 90 μL of PRP with 10 μL of heparin (0.1 mg/mL), which was used as the positive control drug.
Blood coagulation assays were carried out using a coagulation analyzer at the Blood Center clinical laboratory in the Second Hospital affiliated to Jilin University (Changchun, China). Measurements of APTT, PT and TT were performed according to the manufacturer’s recommended protocols. The anti-coagulant activity was expressed as clotting time ± standard deviation (S.D.). Briefly, for APTT assay, 50 μL of the plasma mixture was incubated at 37 °C for 60 s and the mixture was added to the APTT reagent (50 μL) and incubated at 37 °C for 15 min. Finally, APTT values were recorded. For the PT assay, 50 μL of the plasma mixture was incubated at 37 °C for 60 s and then added into the PT reagent (100 μL) prior to incubation at 37 °C for 15 min before the PT values were recorded. For the TT assay, 80 μL of the plasma mixture was incubated at 37 °C for 60 s before the addition of 80 μL of TT reagent for 100 s. TT values were determined by the coagulation analyzer.

[2] = biological target: T1, coagulation factor Xa (FXa) (Bos taurus, UniProt P00743); experiment: FXa activity assay in vitro (chromogenic substrate method); type: biochemical
T1 construct: purchased New England Biolabs (Hitchin, UK)
Method: 10 µL of FXa (final concentration of 0.5 nM), 40 µL of Tris buffer (adjusted to pH 7.4 with HCl containing 0.3 M NaCl and 50 mM Tris) and 10 µL of test compounds were added to the well, respectively. The negative control was performed using the same mixed solutions except that the test compound was replaced with DMSO. […] After 15 min of incubation at 37 °C, FXa substrate (40 μL, final concentration of […]) was added and then was incubated 37 °C for 25 min [3]. The optical density (OD) values at 405 nm were evaluated by an automated microplate reader. […] Inhibition rate was calculated by the following formula: Anti-FXa activity = (V0 − Vi)/V0 [21]. The IC50 value was subsequently calculated by SPSS 19.0.

[3] = biological target: T2, human FIIa (thrombin) (Homo sapiens, UniProt P00734); experiment: Thrombin inhibition in vitro (chromogenic substrate CS-01(38)); type: biochemical; conditions: pH 7.4, 37 °C, 405 nm
T2 construct: purchased Hyphen BioMed (Paris, France)
Method: The inhibition of thrombin was evaluated by human FIIa and chromogenic substrate CS-01(38) in 96-well microtiter plates at room temperature. Compounds 5, 13 and 18 as well as the positive reagent Ximelagatran were dissolved in DMSO to a concentration of 1mM and then serially diluted to a range of 10 μM to 100 μM, respectively. 8 μL of FIIa (3 NIH U/mL), 80 μL of Tris buffer (adjusted to pH 7.4 with HCl) containing 0.3 M NaCl and 50 mM Tris and 8 μL of test compounds were added to the well, respectively. The negative control was performed using the same mixed solutions except that tested compounds were replaced with DMSO. The positive control was performed using the same mixed solutions except that the test compounds were replaced with ximelagatran. After incubation at 37 °C for 15 min, 12 μL of FIIa substrate solution (4 mM) was added and then incubated at 37 °C for 25 min [3]. The anti-FIIa activity was measured at 405 nm using a microplate reader.

[4] = tested on: blood coagulation; conditions: 0.05 mg/mL final concentration vs 0.1 mg/mL heparin; cited from earlier work
[5] = tested on: FXa; parameters: method as in PMID 24412029, PMID 22216842; conditions: cited from earlier work
[6] = tested on: thrombus; parameters: method as in PMID 24412029, PMID 22216842; conditions: rat models, orally administered; cited from earlier work
[7] = FXa 0.5 nM, pH 7.4, 37 °C, OD 405 nm, read-out: IC50 against coagulation factor Xa (FXa)

T1 sequence (P00743 41-180): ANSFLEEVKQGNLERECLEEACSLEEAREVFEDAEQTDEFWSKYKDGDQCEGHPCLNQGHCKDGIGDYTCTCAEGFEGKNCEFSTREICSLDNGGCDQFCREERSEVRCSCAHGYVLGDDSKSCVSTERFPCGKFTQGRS
T1 sequence (P00743 234-492): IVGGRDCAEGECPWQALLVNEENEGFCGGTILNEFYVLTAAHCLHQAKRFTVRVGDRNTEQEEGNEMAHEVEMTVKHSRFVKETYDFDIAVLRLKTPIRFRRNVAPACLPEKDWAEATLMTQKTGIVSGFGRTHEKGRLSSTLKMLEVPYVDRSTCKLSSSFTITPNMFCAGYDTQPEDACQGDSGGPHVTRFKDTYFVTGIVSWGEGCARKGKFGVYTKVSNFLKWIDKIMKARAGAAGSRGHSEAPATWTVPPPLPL

Compound	In vitro anti-coagulation activity versus normal control [1]	IC50 [2, 7] [nM]	other results
20(R)-Rg3	insignificant anti-coagulation effects		
CC(C)=CCC[C@](C)(O[C@@H]1O[C@H](CO)[C@@H](O)[C@H](O)[C@H]1O)[C@H]1CC[C@]2(C)[C@@H]1[C@H](O)C[C@@H]1[C@@]3(C)CC[C@H](O)C(C)(C)[C@@H]3[C@@H](O)C[C@]12C [F1, ginsenoside F1]	significant anti-coagulation activity	227	
CC(C)=CCC[C@](C)(O[C@@H]1O[C@H](CO)[C@@H](O)[C@H](O)[C@H]1O)[C@H]1CC[C@]2(C)[C@@H]1[C@H](O)C[C@@H]1[C@@]3(C)CC[C@H](O[C@@H]4O[C@H](CO)[C@@H](O)[C@H](O)[C@H]4O)C(C)(C)[C@@H]3CC[C@]12C [F2, ginsenoside F2]	significant anti-coagulation activity	425	
CC(C)=CCCC(C)(O)C1CCC2(C)C1C(O)CC1C3(C)CCC(O)C(C)(C)C3CCC12C (centres unmarked) [PPD, protopanaxdiol]	significant anti-coagulation activity	339	
CC(C)=CCCC(C)(O)C1CCC2(C)C1C(O)CC1C3(C)CCC(O)C(C)(C)C3C(O)CC12C (centres unmarked) [PPT, protopanaxtriol]	best bioactivity (p < 0.01)	141	IC50 [3]: 82000 nM
CC(C)=CCC[C@](C)(O)[C@H]1CC[C@]2(C)[C@@H]1[C@H](O)C[C@@H]1[C@@]3(C)CC[C@H](O)C(C)(C)[C@@H]3[C@@H](O[C@@H]3O[C@H](CO)[C@@H](O)[C@H](O)[C@H]3O[C@@H]3O[C@H](CO)[C@@H](O)[C@H](O)[C@H]3O)C[C@]12C [Rf, ginsenoside Rf]	insignificant anti-coagulation effects	1030	
CC(C)=CCC[C@](C)(O[C@@H]1O[C@H](CO)[C@@H](O)[C@H](O)[C@H]1O)[C@H]1CC[C@]2(C)[C@@H]1[C@H](O)C[C@@H]1[C@@]3(C)CC[C@H](O)C(C)(C)[C@@H]3[C@@H](O[C@@H]3O[C@H](CO)[C@@H](O)[C@H](O)[C@H]3O)C[C@]12C [Rg1, ginsenoside Rg1]	significant anti-coagulation activity	335	Anti-coagulant activities in vitro compared to heparin [4]: significantly better anti-coagulant activities
CC(C)=CCC[C@](C)(O)[C@H]1CC[C@]2(C)[C@@H]1[C@H](O)C[C@@H]1[C@@]3(C)CC[C@H](O)C(C)(C)[C@@H]3[C@@H](O[C@@H]3O[C@H](CO)[C@@H](O)[C@H](O)[C@H]3O[C@@H]3O[C@@H](C)[C@H](O)[C@@H](O)[C@H]3O)C[C@]12C [Rg2, ginsenoside Rg2]	best bioactivity (p < 0.01)	136	IC50 [3]: 81300 nM; Anti-coagulant activities in vitro compared to heparin [4]: significantly better anti-coagulant activities
CC(C)=CCC[C@](C)(O)[C@H]1CC[C@]2(C)[C@@H]1[C@H](O)C[C@@H]1[C@@]3(C)CC[C@H](O)C(C)(C)[C@@H]3[C@@H](O[C@@H]3O[C@H](CO)[C@@H](O)[C@H](O)[C@H]3O)C[C@]12C [Rh1, ginsenoside Rh1]	significant anti-coagulation activity		IC50 [2]: 236 nM
CC(C)=CCC[C@](C)(O)[C@H]1CC[C@]2(C)[C@@H]1[C@H](O)C[C@@H]1[C@@]3(C)CC[C@H](O[C@@H]4O[C@H](CO)[C@@H](O)[C@H](O)[C@H]4O)C(C)(C)[C@@H]3CC[C@]12C [Rh2, ginsenoside Rh2]	significant anti-coagulation activity		IC50 [2]: 349 nM
CC1(C)[C@@H](O)CC[C@]2(C)[C@H]3C(=O)C=C4[C@@H]5C[C@@](C)(C(=O)O)CC[C@]5(C)CC[C@@]4(C)[C@]3(C)CC[C@@H]12 [glycyrrhetinic acid]			Inhibition of FXa activity in vitro [5]: significantly inhibit FXa activity in vitro with specificity; Thrombus weight [6]: reduce thrombus weight
ginsenoside Rg3	best bioactivity (p < 0.01)		

— PMC6154706, “Inhibitory Effect of Triterpenoids from Panax ginseng on Coagulation Factor X” (Molecules : A Journal of Synthetic Chemistry and Natural …, 2017)
